A word on the Ki: it is the dissociation constant of the complex between target and ligand, obtained from inhibition or displacement. Read a low Ki as a stronger hold on the target.

Holding throughout (format): cell-based
For experiment [1], the target named is T1, D(4) dopamine receptor (Homo sapiens, UniProt P21917).
T1 sequence (P21917 whole entry): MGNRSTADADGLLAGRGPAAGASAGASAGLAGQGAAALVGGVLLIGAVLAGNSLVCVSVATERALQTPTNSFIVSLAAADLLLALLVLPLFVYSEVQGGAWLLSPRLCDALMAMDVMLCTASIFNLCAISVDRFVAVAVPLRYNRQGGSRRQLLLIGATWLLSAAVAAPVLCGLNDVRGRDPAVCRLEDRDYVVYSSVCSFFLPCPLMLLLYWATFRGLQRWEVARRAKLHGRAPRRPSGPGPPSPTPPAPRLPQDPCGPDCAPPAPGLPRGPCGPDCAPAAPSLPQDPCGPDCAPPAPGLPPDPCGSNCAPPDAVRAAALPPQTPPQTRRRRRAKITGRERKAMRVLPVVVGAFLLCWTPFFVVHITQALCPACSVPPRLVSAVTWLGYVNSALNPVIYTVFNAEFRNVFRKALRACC
Nature of the experiment: Binding affinity at cloned human D4 dopamine receptor in CHO cells using [3H]-YM 09151 as radioligand.

For experiment [2], the target named is D(2) dopamine receptor (Homo sapiens, UniProt P14416). Nature of the experiment: Binding affinity at cloned human D2 dopamine receptor in CHO cells using [3H]-YM 09151 as radioligand.
The target of experiment [3] is D(3) dopamine receptor (Homo sapiens, UniProt P35462). Nature of the experiment: Binding affinity at cloned human D3 dopamine receptor in CHO cells using [3H]-YM 09151 as radioligand.

Bounds are passed on as bounds.

Chain of D(3) dopamine receptor (P35462 whole entry): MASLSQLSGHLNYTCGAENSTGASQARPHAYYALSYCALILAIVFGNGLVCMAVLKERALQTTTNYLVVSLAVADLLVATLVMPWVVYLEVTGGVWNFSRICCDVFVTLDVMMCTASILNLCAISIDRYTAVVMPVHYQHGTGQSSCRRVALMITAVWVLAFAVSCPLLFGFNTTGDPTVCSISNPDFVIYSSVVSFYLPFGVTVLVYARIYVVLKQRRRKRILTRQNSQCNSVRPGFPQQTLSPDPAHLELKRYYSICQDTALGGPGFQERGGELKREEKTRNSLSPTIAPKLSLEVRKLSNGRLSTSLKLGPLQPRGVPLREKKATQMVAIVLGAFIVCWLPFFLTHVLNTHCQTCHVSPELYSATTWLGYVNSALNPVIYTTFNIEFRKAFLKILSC
Chain of D(2) dopamine receptor (P14416 whole entry): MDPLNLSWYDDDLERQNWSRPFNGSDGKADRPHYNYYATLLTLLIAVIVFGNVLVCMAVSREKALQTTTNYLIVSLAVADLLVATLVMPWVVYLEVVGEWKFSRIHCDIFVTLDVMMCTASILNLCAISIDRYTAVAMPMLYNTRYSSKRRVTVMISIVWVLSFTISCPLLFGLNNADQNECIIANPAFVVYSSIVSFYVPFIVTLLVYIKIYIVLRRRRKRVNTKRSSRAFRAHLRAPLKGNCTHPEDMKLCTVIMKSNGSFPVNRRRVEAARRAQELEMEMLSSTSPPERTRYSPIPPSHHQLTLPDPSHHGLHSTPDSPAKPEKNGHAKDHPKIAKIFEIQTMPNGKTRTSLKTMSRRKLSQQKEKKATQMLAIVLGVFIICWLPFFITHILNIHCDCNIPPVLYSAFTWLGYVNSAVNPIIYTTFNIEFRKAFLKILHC

`c1ccc2c(c1)N=C(NCCCCCN1CCN(c3ccc4ccccc4n3)CC1)CO2` displayed a Ki in experiment [1] of 125 nM.
In the case of `COc1ccccc1N1CCN(CCCNC2=Nc3ccccc3OC2)CC1`, the values for the Ki in experiment [1], in experiment [2] and in experiment [3] were 3 nM, 280 nM and above 1000 nM, respectively.

(Values after ChEMBL document CHEMBL1130531, “A new series of selective dopamine D4 ligands: 3-([4-arylpiperazin-1-yl]alkylamino)-2H-1,4-benzoxazines” (Bioorg Med Chem Lett, 1997).)
